The values below come from patent US20260285855A1, “HETEROARYL DERIVATIVES AS DDRS INHIBITORS” (CHIESI FARMACEUTICI S.P.A., priority 2023, published 2026).

The target in assay [1] is T1, DDR1 (Homo sapiens, UniProt Q08345).
T1 construct: purchased Carna Biosciences
The assay is described as follows: LanthaScreen Europium Kinase Binding assay, DDR1. Conditions: 5 nM DDR1, 20 nM Kinase Tracer 178, 1 h at rt; Ki from IC50 by Cheng-Prusoff; read-out: Ki DDR1. The method, then:
(§1) DDR1 and DDR2 binding assays were performed using Life Technologies LanthaScreen™ Europium Kinase Binding assay. […] IC50 values were determined in GraphPad Prism 7.0 software, using 4 parameter model: log (inhibitor) vs. response. IC50 values were converted in Ki using the Cheng-Prusoff equation (Ki-IC50/(1+ [Tracer]/Kd).
On the technique in general: TR-FRET usually uses a lanthanide donor and a delayed reading to cut background.

Assay [2] addresses T2, DDR2 (Homo sapiens, UniProt Q16832).
T2 construct: purchased Life Technologies
T2 sequence (Q16832 22-855): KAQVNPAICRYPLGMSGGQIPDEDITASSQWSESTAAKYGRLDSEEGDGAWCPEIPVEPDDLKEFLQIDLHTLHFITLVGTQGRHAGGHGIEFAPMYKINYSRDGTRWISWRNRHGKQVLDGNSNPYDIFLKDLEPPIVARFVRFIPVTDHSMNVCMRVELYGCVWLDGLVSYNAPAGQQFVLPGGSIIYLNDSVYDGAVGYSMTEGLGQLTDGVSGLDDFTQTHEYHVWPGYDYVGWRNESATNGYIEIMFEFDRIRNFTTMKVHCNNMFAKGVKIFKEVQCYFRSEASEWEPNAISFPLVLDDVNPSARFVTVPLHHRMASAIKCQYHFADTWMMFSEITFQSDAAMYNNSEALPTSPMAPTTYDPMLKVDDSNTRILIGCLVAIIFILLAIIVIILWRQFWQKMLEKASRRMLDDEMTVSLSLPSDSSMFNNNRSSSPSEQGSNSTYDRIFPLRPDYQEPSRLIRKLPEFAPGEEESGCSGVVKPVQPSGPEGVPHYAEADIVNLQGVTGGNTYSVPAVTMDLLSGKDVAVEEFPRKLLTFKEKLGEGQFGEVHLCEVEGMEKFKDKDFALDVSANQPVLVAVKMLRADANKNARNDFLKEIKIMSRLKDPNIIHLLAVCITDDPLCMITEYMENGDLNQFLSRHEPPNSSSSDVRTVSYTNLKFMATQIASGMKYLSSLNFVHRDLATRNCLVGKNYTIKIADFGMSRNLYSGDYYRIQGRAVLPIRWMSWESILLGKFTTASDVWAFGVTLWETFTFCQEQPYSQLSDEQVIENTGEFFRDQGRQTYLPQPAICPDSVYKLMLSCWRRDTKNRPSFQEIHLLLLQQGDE
The assay is described as follows: LanthaScreen Europium Kinase Binding assay, DDR2. Conditions: 5 nM DDR2, 10 nM Kinase Tracer 178, 1 h at rt; Ki from IC50 by Cheng-Prusoff; read-out: Ki DDR2. The method, then: as §1

T1 sequence (Q08345 19-913): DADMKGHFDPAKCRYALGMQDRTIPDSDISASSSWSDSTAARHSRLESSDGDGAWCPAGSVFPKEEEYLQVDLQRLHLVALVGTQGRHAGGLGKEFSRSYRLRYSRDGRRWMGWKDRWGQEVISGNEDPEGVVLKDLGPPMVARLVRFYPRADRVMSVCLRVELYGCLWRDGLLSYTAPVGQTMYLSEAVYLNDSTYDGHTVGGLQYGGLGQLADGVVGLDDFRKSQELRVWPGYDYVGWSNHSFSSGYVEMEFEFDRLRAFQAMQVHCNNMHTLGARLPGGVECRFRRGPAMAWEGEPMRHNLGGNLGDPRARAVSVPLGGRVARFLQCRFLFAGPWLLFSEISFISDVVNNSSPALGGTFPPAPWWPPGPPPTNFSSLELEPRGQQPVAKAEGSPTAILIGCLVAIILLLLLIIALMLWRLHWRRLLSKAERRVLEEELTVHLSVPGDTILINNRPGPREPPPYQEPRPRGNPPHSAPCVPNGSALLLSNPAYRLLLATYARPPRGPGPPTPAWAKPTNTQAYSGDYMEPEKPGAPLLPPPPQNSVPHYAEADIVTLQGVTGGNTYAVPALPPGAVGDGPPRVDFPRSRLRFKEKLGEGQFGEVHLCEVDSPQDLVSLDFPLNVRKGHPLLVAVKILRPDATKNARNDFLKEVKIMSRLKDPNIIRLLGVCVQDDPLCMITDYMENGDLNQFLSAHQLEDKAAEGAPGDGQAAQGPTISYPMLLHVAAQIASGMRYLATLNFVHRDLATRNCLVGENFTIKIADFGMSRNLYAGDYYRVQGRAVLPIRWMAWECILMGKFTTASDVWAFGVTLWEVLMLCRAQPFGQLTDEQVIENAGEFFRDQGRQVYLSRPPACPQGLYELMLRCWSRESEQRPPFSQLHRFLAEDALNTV

On to `COc1ccc(C(F)(F)F)cc1NC(=O)N(C)C1CC2(C1)CN(C(=O)c1ncnc3[nH]ccc13)C2` [Example 260, 1-(2-(7H-pyrrolo[2,3-d]pyrimidine-4-carbonyl)-2-azaspiro[3.3]heptan-6-yl)-3-(2-methoxy-5-(trifluoromethyl)phenyl)-1-methylurea], for which the inhibitory constant (Ki) was < 5 nM in assay [1] and 5 to 25 nM in assay [2].
Take `Cc1ccc(OC(F)(F)F)cc1NC(=O)N(C)C1CC2(C1)CN(C(=O)c1cnn3ccn(C)c13)C2` [Example 104, 1-methyl-1-(2-(1-methyl-1H-imidazo[1,2-b]pyrazole-7-carbonyl)-2-azaspiro[3.3]heptan-6-yl)-3-(2-methyl-5-(trifluoromethoxy)phenyl)urea]: the Ki in assay [1] is < 5 nM; in assay [2], 5 to 25 nM.
On the same counts, the results for `COc1ncc(Cl)cc1NC(=O)NC1CC2(C1)CN(C(=O)c1cnn3ccn(C)c13)C2` [Example 83, 1-(5-chloro-2-methoxypyridin-3-yl)-3-(2-(1-methyl-1H-imidazo[1,2-b]pyrazole-7-carbonyl)-2-azaspiro[3.3]heptan-6-yl)urea] are < 5 nM and 5 to 25 nM.
For `CN(C(=O)Nc1cc(OC(F)(F)F)ccn1)C1CC2(C1)CN(c1cnc3[nH]ncc3c1)C2` [Example 219, 1-(2-(1H-pyrazolo[3,4-b]pyridin-5-yl)-2-azaspiro[3.3]heptan-6-yl)-1-methyl-3-(4-(trifluoromethoxy)pyridin-2-yl)urea], in that order: < 5 nM and 5 to 25 nM.
For `CN(C(=O)Nc1cc(C(F)(F)F)ccn1)C1CC2(C1)CN(C(=O)c1cnn3ccn(C)c13)C2` [Example 129, 1-methyl-1-(2-(1-methyl-1H-imidazo[1,2-b]pyrazole-7-carbonyl)-2-azaspiro[3.3]heptan-6-yl)-3-(4-(trifluoromethyl)pyridin-2-yl)urea], in that order: < 5 nM and 5 to 25 nM.
On to `CN1CCN(c2ccn3ncc(C(=O)N4CC5(CC(NC(=O)Nc6cccc(C(F)(F)F)c6)C5)C4)c3c2)C(=O)C1` [Example 186, 1-(2-(5-(4-methyl-2-oxopiperazin-1-yl)pyrazolo[1,5-a]pyridine-3-carbonyl)-2-azaspiro[3.3]heptan-6-yl)-3-(3-(trifluoromethyl)phenyl)urea], for which the Ki is < 5 nM in assay [1] and 5 to 25 nM in assay [2].
Consider `O=C(Nc1cncc(C(F)(F)F)c1)NC1CC2(C1)CN(C(=O)c1ccnc3ccsc13)C2` [Example 49, 1-(2-(thieno[3,2-b]pyridine-7-carbonyl)-2-azaspiro[3.3]heptan-6-yl)-3-(5-(trifluoromethyl)pyridin-3-yl)urea], for which the Ki in assay [1] and in assay [2] was < 5 nM in each case.
`Cn1ccn2ncc(C(=O)N3CC4(CC(NC(=O)Nc5cccc(SC(F)(F)F)c5)C4)C3)c12` [Example 125, 1-(2-(1-methyl-1H-imidazo[1,2-b]pyrazole-7-carbonyl)-2-azaspiro[3.3]heptan-6-yl)-3-(3-((trifluoromethyl)thio)phenyl) urea]: the Ki in assay [1] and in assay [2] was < 5 nM throughout.
As to `Cc1cc2ncnc(C(=O)N3CC4(CC(NC(=O)Nc5cccc(C(F)(F)F)c5)C4)C3)c2s1` [Example 99, 1-(2-(6-methylthieno[3,2-d]pyrimidine-4-carbonyl)-2-azaspiro[3.3]heptan-6-yl)-3-(3-(trifluoromethyl)phenyl)urea], the Ki in assay [1] and in assay [2] was < 5 nM each time.
As to `O=C(Nc1cccc(C(F)(F)F)c1)NC1CC2(C1)CN(C(=O)c1cnn3ccc(N4CCS(=O)(=O)CC4)cc13)C2` [Example 183, 1-(2-(5-(1,1-dioxidothiomorpholino)pyrazolo[1,5-a]pyridine-3-carbonyl)-2-azaspiro[3.3]heptan-6-yl)-3-(3-(trifluoromethyl)phenyl)urea], the figures for the Ki in assay [1] and in assay [2] were < 5 nM and 5 to 25 nM, respectively.
For `Cn1ccn2ncc(C(=O)N3CC4(CC(OC(=O)Nc5cc(C(F)(F)F)cnn5)C4)C3)c12` [Example 311, 2-(1-methyl-1H-imidazo[1,2-b]pyrazole-7-carbonyl)-2-azaspiro[3.3]heptan-6-yl(5-(trifluoromethyl)pyridazin-3-yl)carbamate], in that order: < 5 nM and 5 to 25 nM.
On the same counts, the results for `N#Cc1cc(NC(=O)NC2CC3(C2)CN(C(=O)c2cnn4ccncc24)C3)cc(C(F)(F)F)c1` [Example 19, 1-(3-cyano-5-(trifluoromethyl)phenyl)-3-(2-(pyrazolo[1,5-a]pyrazine-3-carbonyl)-2-azaspiro[3.3]heptan-6-yl)urea] are < 5 nM and < 5 nM.
On the same counts, the results for `O=C(Nc1cccc(C(F)(F)F)c1)NC1CC2(C1)CN(C(=O)c1cnn3cc(CO)ccc13)C2` [Example 113, 1-(2-(6-(hydroxymethyl)pyrazolo[1,5-a]pyridine-3-carbonyl)-2-azaspiro[3.3]heptan-6-yl)-3-(3-(trifluoromethyl)phenyl)urea] are < 5 nM and < 5 nM.
Take `Cc1ccc(-n2nc(C(C)(C)C)cc2NC(=O)NC2CC3(C2)CN(C(=O)c2cnn4ccn(C)c24)C3)cc1` [Example 43, 1-(3-(tert-butyl)-1-(p-tolyl)-1H-pyrazol-5-yl)-3-(2-(1-methyl-1H-imidazo[1,2-b]pyrazole-7-carbonyl)-2-azaspiro[3.3]heptan-6-yl)urea]: the results for the Ki in assay [1] and in assay [2] were < 5 nM and 5 to 25 nM, respectively.
On the same counts, the results for `CCn1ccn2ncc(C(=O)N3CC4(CC(NC(=O)Nc5cccc(C(F)(F)F)c5)C4)C3)c12` [Example 70, 1-(2-(1-ethyl-1H-imidazo[1,2-b]pyrazole-7-carbonyl)-2-azaspiro[3.3]heptan-6-yl)-3-(3-(trifluoromethyl)phenyl)urea] are < 5 nM and < 5 nM.
On the same counts, the results for `CN(C(=O)Nc1cccc(C(F)(F)F)c1)C1CC2(C1)CN(C(=O)c1cnn3ccn(CCF)c13)C2` [Example 195, 1-(2-(1-(2-fluoroethyl)-1H-imidazo[1,2-b]pyrazole-7-carbonyl)-2-azaspiro[3.3]heptan-6-yl)-1-methyl-3-(3-(trifluoromethyl)phenyl)urea] are < 5 nM and 5 to 25 nM.
On the same counts, the results for `Cc1ccc(C(F)(F)F)cc1NC(=O)N(C)C1CC2(C1)CN(C(=O)c1cnn3ccn(C)c13)C2` [Example 232, 1-methyl-1-(2-(1-methyl-1H-imidazo[1,2-b]pyrazole-7-carbonyl)-2-azaspiro[3.3]heptan-6-yl)-3-(2-methyl-5-(trifluoromethyl)phenyl)urea] are < 5 nM and 5 to 25 nM.
In the case of `Cc1cc(NC(=O)N(C)C2CC3(C2)CN(C(=O)c2ncnc4[nH]ccc24)C3)cc(C(F)(F)F)c1` [Example 268, 1-(2-(7H-pyrrolo[2,3-d]pyrimidine-4-carbonyl)-2-azaspiro[3.3]heptan-6-yl)-1-methyl-3-(3-methyl-5-(trifluoromethyl)phenyl)urea], the inhibition constant (Ki) in assay [1] is < 5 nM; in assay [2], 5 to 25 nM.
For `O=C(Nc1cc(OC(F)(F)F)ccn1)NC1CC2(C1)CN(C(=O)c1ncnc3ccsc13)C2` [Example 101, 1-(2-(thieno[3,2-d]pyrimidine-4-carbonyl)-2-azaspiro[3.3]heptan-6-yl)-3-(4-(trifluoromethoxy)pyridin-2-yl)urea], in that order: < 5 nM and < 5 nM.
For `Cn1ccn2ncc(C(=O)N3CC4(CC(N(C(=O)Nc5cccc(C(F)(F)F)c5)C5CC5)C4)C3)c12` [Example 187, 1-cyclopropyl-1-(2-(1-methyl-1H-imidazo[1,2-b]pyrazole-7-carbonyl)-2-azaspiro[3.3]heptan-6-yl)-3-(3-(trifluoromethyl)phenyl)urea], in that order: < 5 nM and 5 to 25 nM.
On the same counts, the results for `COc1ncc(C(F)(F)F)cc1NC(=O)NC1CC2(C1)CN(C(=O)c1cnn3ccsc13)C2` [Example 262, 1-(2-methoxy-5-(trifluoromethyl)pyridin-3-yl)-3-(2-(pyrazolo[5,1-b]thiazole-7-carbonyl)-2-azaspiro[3.3]heptan-6-yl)urea] are < 5 nM and 5 to 25 nM.
Consider `CN(C(=O)Nc1cc(Br)ccn1)C1CC2(C1)CN(C(=O)c1cnn3ccsc13)C2` [Example 226, 3-(4-bromopyridin-2-yl)-1-methyl-1-(2-(pyrazolo[5,1-b]thiazole-7-carbonyl)-2-azaspiro[3.3]heptan-6-yl)urea], for which the Ki was < 5 nM in assay [1] and 5 to 25 nM in assay [2].

As usually defined, the Ki is a measure of affinity in units of concentration, obtained from inhibition or displacement.
